According to ChEMBL document CHEMBL2424638, “6-Bromo-8-(4-[(3)H]methoxybenzamido)-4-oxo-4H-chromene-2-carboxylic Acid: a powerful tool for studying orphan G protein-coupled receptor GPR35” (J Med Chem, 2013):

Legend:
[1] = target: T1, G-protein coupled receptor 35 (Homo sapiens, UniProt Q9HC97); assay: biochemical; format: cell-based, CHO
Description: Displacement of [3H]PSB-13253 from human recombinant GPR35 exprssed in CHO cells by liquid scintillation counting analysis

[2] = target: T1, G-protein coupled receptor 35; assay: Agonist activity at C-terminal beta-galactosidase tagged human recombinant GPR35 expressed in CHO cells at 100 uM after 90 mins by beta-arrestin recruitment assay relative to zaprinast; format: cell-based
[3] = target: T1, G-protein coupled receptor 35; assay: Agonist activity at C-terminal beta-galactosidase tagged human recombinant GPR35 expressed in CHO cells after 90 mins by beta-arrestin recruitment assay; format: cell-based
[4] = target: T1, G-protein coupled receptor 35; conditions: CHO, 5 nM
[5] = target: T1, G-protein coupled receptor 35; conditions: CHO, 5 nM; remark: listed apart in the source
[6] = target: T1, G-protein coupled receptor 35; conditions: CHO, 5 nM; remark: listed apart in the source
[7] = target: T1, G-protein coupled receptor 35; conditions: CHO, 5 nM; remark: listed apart in the source
[8] = target: T1, G-protein coupled receptor 35; conditions: CHO, 5 nM; remark: listed apart in the source
[9] = target: T1, G-protein coupled receptor 35; assay: Binding affinity to human recombinant GPR35 expressed in CHO cells after 150 mins by liquid scintillation counting analysis
[10] = target: T1, G-protein coupled receptor 35; assay: Binding affinity to human recombinant GPR35 expressed in CHO cells by scintillation counting analysis in absence of MgCl2, NaCl, CaCl2; format: cell-based
[11] = target: T1, G-protein coupled receptor 35; assay: Competitive binding affinity to human recombinant GPR35 expressed in CHO cells by scintillation counting analysis in presence of CaCl2; format: cell-based
[12] = target: T1, G-protein coupled receptor 35; assay: Competitive binding affinity to human recombinant GPR35 expressed in CHO cells by scintillation counting analysis in presence of MgCl2; format: cell-based
[13] = target: T1, G-protein coupled receptor 35; assay: Agonist activity at human GPR35 expressed in HEK293T cells at 5 uM by EYPF-based beta-arrestin-2 luciferase reporter gene assay; format: cell-based, HEK-293T
[14] = target: T1, G-protein coupled receptor 35; assay: Displacement of [3H]PSB-13253 from human recombinant GPR35 exprssed in CHO cells at 10 uM by liquid scintillation counting analysis; format: cell-based
[15] = target: T1, G-protein coupled receptor 35; assay: Agonist activity at human GPR35 by DMR assay
[16] = target: T1, G-protein coupled receptor 35; assay: Agonist activity at human GPR35 by Ca+2 release assay
[17] = target: T1, G-protein coupled receptor 35; assay: Antagonist activity at C-terminal beta-galactosidase tagged human recombinant GPR35 expressed in CHO cells after 90 mins by beta-arrestin recruitment assay; format: cell-based
[18] = target: T1, G-protein coupled receptor 35; assay: Antagonist activity at human Gal4-VP16 fused GPR35 expressed in human U2OS cells assessed as beta arrestin translocation by reporter gene assay; format: cell-based
[19] = target: T1, G-protein coupled receptor 35; assay: Antagonist activity at human GPR35 expressed in human HT29 cells after 1 hr by DMR assay; format: cell-based; conditions: ht-29
[20] = target: T1, G-protein coupled receptor 35; assay: Agonist activity at human GPR35 expressed in CHO cells assessed as increase in intracellular Ca2+ measured over 20 secs by Aequorin assay; format: functional, cell-based

T1 sequence (Q9HC97 whole entry): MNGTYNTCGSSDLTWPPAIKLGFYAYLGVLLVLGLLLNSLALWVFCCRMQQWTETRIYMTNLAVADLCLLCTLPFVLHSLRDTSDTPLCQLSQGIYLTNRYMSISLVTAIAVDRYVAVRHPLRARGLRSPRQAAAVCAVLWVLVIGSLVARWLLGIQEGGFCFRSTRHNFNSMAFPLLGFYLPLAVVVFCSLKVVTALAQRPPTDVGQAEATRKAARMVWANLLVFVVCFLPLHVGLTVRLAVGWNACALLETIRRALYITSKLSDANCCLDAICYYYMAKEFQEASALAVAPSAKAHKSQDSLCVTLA

Compound | Ki [1] [µM] | other results
CC(=O)Nc1cccc2c(=O)cc(C(=O)O)oc12 | 18.5 | –
O=C(Nc1cc(Br)cc2c(=O)cc(C(=O)O)oc12)c1ccc(Cl)cc1 | 0.00479 | –
Cc1cccc(C(=O)Nc2cccc3c(=O)cc(C(=O)O)oc23)c1 | 4.78 | –
CCCOc1ccc(C(=O)Nc2cccc3c(=O)cc(C(=O)O)oc23)cc1 | 8.06 | –
NS(=O)(=O)c1cc(C(=O)O)c(NCc2ccco2)cc1Cl | – | Emax [2]: 96%
COc1ccc(C(=O)Nc2cc(Br)cc3c(=O)cc(C(=O)O)oc23)c(F)c1 | 0.00137 | EC50 [3]: 0.00445 µM; Emax [2]: 120%
N#Cc1ccc(C(=O)Nc2cc(Br)cc3c(=O)cc(C(=O)O)oc23)cc1 | 0.148 | –
COc1ccc(C(=O)Nc2cc(Br)cc3c(=O)cc(C(=O)O)oc23)cc1 | 0.00518 | inhibition [4]: 90%; inhibition [5]: 85%; inhibition [6]: 65%; T1/2 [7]: 7.8 min; T1/2 [8]: 9.91 min
Cc1cccc(C(=O)Nc2cc(Br)cc3c(=O)cc(C(=O)O)oc23)c1 | 0.128 | –
O=C(Nc1cc(Br)cc2c(=O)cc(C(=O)O)oc12)c1ccc(Cl)c(Cl)c1 | 0.00218 | EC50 [3]: 0.0251 µM
O=C(Nc1cccc2c(=O)cc(C(=O)O)oc12)c1ccc2ccccc2n1 | 0.691 | –
COC(=O)CC(=O)Nc1cccc2c(=O)cc(C(=O)O)oc12 | 18.6 | –
COc1ccc(C(=O)Nc2cc(C)cc3c(=O)cc(C(=O)O)oc23)cc1 | 0.0428 | EC50 [3]: 0.0377 µM; Emax [2]: 118%
O=C(O)c1cc2ccccc2c(Cc2c(O)c(C(=O)O)cc3ccccc23)c1O | – | Emax [2]: 95%
O=C(Nc1cccc2c(=O)cc(C(=O)O)oc12)c1ccc(Br)cc1 | 0.233 | –
O=C(Nc1cc(F)cc2c(=O)cc(C(=O)O)oc12)c1ccc(Cl)c(Cl)c1 | 0.0115 | –
[3H]C([3H])([3H])Oc1ccc(C(=O)Nc2cc(Br)cc3c(=O)cc(C(=O)O)oc23)cc1 | – | Kd [9]: 0.00527 µM; Kd [10]: 0.115 µM; Kd [11]: 0.00592 µM; Kd [12]: 0.00565 µM
COc1ccc(C(=O)Nc2cc(Br)cc3c(=O)cc(C(=O)O)oc23)cc1F | 0.00164 | EC50 [3]: 0.00437 µM; Emax [2]: 120%
COc1ccc(C(=O)Nc2cc(Cl)cc3c(=O)cc(C(=O)O)oc23)cc1 | 0.0055 | –

Compound | Ki [1] [µM] | other results
COc1ccc(C(=O)Nc2cc(Br)cc3c(=O)cc(C(=O)O)oc23)cc1OC | 0.228 | –
O=C(O)c1cc(=O)c2cc(F)cc(NC(=O)c3ccc(Cl)cc3Cl)c2o1 | 0.00412 | –
O=C(O)c1cc(=O)c2cccc([N+](=O)[O-])c2o1 | 13.6 | –
O=C(Nc1cccc2c(=O)cc(C(=O)O)oc12)c1ccc(OCC2CC2)cc1 | 3.71 | –
COc1ccc(C(=O)Nc2cc(OC)cc3c(=O)cc(C(=O)O)oc23)cc1 | 0.0205 | EC50 [3]: 0.0255 µM; Emax [2]: 124%
O=C(Nc1cc(Cl)cc2c(=O)cc(C(=O)O)oc12)c1ccccc1 | 0.138 | –
O=C(O)COc1ccc(/C=C2\SC(=O)NC2=O)cc1 | 0.0508 | EC50 [3]: 0.349 µM; EC50 [13]: 1.4 µM; Emax [2]: 107%
COc1ccc(C(=O)Nc2cc(Cl)cc3c(=O)cc(C(=O)O)oc23)c(F)c1 | 0.00192 | EC50 [3]: 0.00606 µM; Emax [2]: 111%
COc1ccc(C(=O)Nc2cc(F)cc3c(=O)cc(C(=O)O)oc23)cc1 | 0.0254 | –
Nc1cc(Br)cc2c(=O)cc(C(=O)O)oc12 | 3.01 | –
CCC(=O)Nc1cccc2c(=O)cc(C(=O)O)oc12 | 6.77 | –
O=C(O)c1cc(=O)c2cccc(NC(=O)C3CCCCC3)c2o1 | 3.58 | –
O=C(Nc1cc(Br)cc2c(=O)cc(C(=O)O)oc12)c1ccc2c(c1)OCO2 | 0.015 | –
COc1ccc(C(=O)Nc2cccc3c(=O)cc(C(=O)O)oc23)cc1 | 0.221 | –
O=C(Nc1cccc2c(=O)cc(C(=O)O)oc12)c1ccc(C(F)(F)F)cc1 | 10.3 | –
COc1ccc(C(=O)Nc2cc(Br)cc3c(=O)cc(C(=O)O)oc23)nc1 | 0.0568 | –
O=C(Nc1cccc2c(=O)cc(C(=O)O)oc12)c1ccc2ccccc2c1 | 0.714 | –
CCOC(=O)c1cc(=O)c2cc(F)cc(NC(=O)c3ccc(OC)cc3)c2o1 | 0.198 | –
Cc1cccc(C(=O)Nc2cc(Cl)cc3c(=O)cc(C(=O)O)oc23)c1 | 0.25 | –

Compound | Ki [1] [µM] | other results
O=C(Nc1cccc2c(=O)cc(C(=O)O)oc12)c1ccccc1 | 3.29 | –
Nc1cccc2c(=O)cc(C(=O)O)oc12 | – | inhibition [14]: 7%
O=C(Nc1cccc2c(=O)cc(C(=O)O)oc12)c1cccc([N+](=O)[O-])c1 | 4.39 | –
COc1ccc(C(=O)Nc2cc(Br)cc3c(=O)cc(C(=O)O)oc23)c(Cl)c1 | 0.00112 | –
CC1=C(C#N)C(=C(C#N)C#N)OC1(C)c1ccc(Cl)c(Cl)c1 (stereo unspecified) | 0.655 | –
O=C(O)c1cc(=O)c2c(OCC(O)COc3cccc4oc(C(=O)O)cc(=O)c34)cccc2o1 [CROMOLYN] | 2.34 | EC50 [15]: 0.52 µM; Emax [2]: 119%; EC50 [16]: 0.21 µM
COc1cc(F)c(C(=O)Nc2cc(Br)cc3c(=O)cc(C(=O)O)oc23)c(F)c1 | 0.000589 | EC50 [3]: 0.00554 µM; Emax [2]: 119%
COc1ccc(C(=O)Nc2cc(Br)cc3c(=O)cc(C(=O)O)oc23)cn1 | 0.0257 | –
O=C(O)c1cc(=O)c2cc(Br)cc(NC(=O)c3ccc(Cl)cc3Cl)c2o1 | 0.000938 | –
Cc1ccc(C(=O)Nc2cccc3c(=O)cc(C(=O)O)oc23)cc1 | 0.697 | –
O=C(Cc1ccccc1)Nc1cccc2c(=O)cc(C(=O)O)oc12 | 2.72 | –
COC(=O)c1cnn(-c2ccc(F)cc2F)c1/C=N/NC(=S)NC(C)(C)C | 0.0422 | IC50 [17]: 0.574 µM; IC50 [18]: 0.2 µM; IC50 [19]: 10.4 µM
COc1ccccc1C(=O)Nc1cc(Br)cc2c(=O)cc(C(=O)O)oc12 | 0.331 | –
CCOc1ccc(C(=O)Nc2cc(Br)cc3c(=O)cc(C(=O)O)oc23)cc1 | 0.0984 | –
O=C(O)c1cc(=O)c2cc(F)cc(NC(=O)c3cccc(Cl)c3Cl)c2o1 | 0.119 | –
O=C(Nc1cc(Cl)cc2c(=O)cc(C(=O)O)oc12)c1ccc([N+](=O)[O-])cc1 | 0.183 | –
O=C(O)c1cc(=O)c2ccccc2[nH]1 [TRANSTORINE] | 137 | EC50 [20]: 39.2 µM
O=c1oc2ccccc2c(O)c1Cc1c(O)c2ccccc2oc1=O [DICUMAROL] | 0.039 | EC50 [3]: 9.78 µM; EC50 [13]: 1.3 µM; Emax [2]: 107%
O=C(Nc1cc(Br)cc2c(=O)cc(C(=O)O)oc12)c1ccccc1 | 0.0816 | –
